Measurements published in patent US20150374861A1, “KIT FOR TUMOR IMAGING” (THOMAS JEFFERSON UNVERSITY, priority 2013, published 2015).
Read-outs that look alike come from different tables or passages of the source.

Columns and labels:
[1] = tested on: primary tumor site and metastatic lymph nodes; test: Whole body PET/CT imaging of breast cancer patients; format: in vivo, human; settings: six PET/CT patients: six primary lesions, four involved lymph nodes
Method: Caucasian, Hispanic, African American or Asian non-pregnant women, eighteen years of age or older, with newly diagnosed, histologically proven BC were enrolled. Image guided percutaneous biopsy was performed two to six weeks prior to this imaging procedure. Each patient signed the informed consent form. For this feasibility study, a biostatistician determined that six patients be studied with PET and thirteen with PEM. This determination was based on the assumption that Cu-64-TP3805 will detect 80% of the lesions and there will be 87% power to conclude the use of this agent to diagnosis BC.
Each patient fasted for six hours prior to F-18-FDG injection. Before F-18-FDG injection, blood sugar was monitored. Patients with sugar levels below 250 mg/DL were enrolled. […]
For Cu-64-TP3805 imaging, patients neither fasted nor were blood sugar levels determined. […]
All images were read by two board certified nuclear medicine physicians and a board certified breast imaging physician. […] For six patients with PET/CT, standardized uptake values (SUV) were calculated for the primary tumor site and metastatic lymph nodes, and compared for the respective radiotracers. Metabolic tumor volume was calculated using 50% isocontour geometry method for comparison, as it is relatively a better parameter, as compared to SUV.

[2] = literature, Ga-67 Citrate 10 mCi, Cu-64 ATSM 25 mCi, cited from earlier work; for Effective Dose: FDG-PET/CT F-18 10 mCi, Sestamibi Tc-99m 30 mCi, FDG-PET/PM w/o CT F-18 10 mCi

| SMILES | detection of lesions [1] | Effective Dose ([2]; listed as FDG-PET/CT) | Effective Dose ([2]; listed as FDG-PET/PM w/o CT) | Effective Dose [2] | Liver Dose [2] |
| --- | --- | --- | --- | --- | --- |
| OC[C@H]1O[C@@H](O)[C@H]([18F])[C@@H](O)[C@@H]1O [F-18-FDG] | ten lesions detected | 31.9 mSv | 2.8 mSv | – | – |
| CNC1=NN=C(C)C(C)=NN=C(NC)[S][64Cu][S]1 [Cu-64 ATSM] | – | – | – | 33.3 mSv | 361 mSv |
| O=C([O-])CC(O)(CC(=O)[O-])C(=O)[O-].[Ga+3] [Ga-67 Citrate] | – | – | – | 39 mSv | 69 mSv |
